We go through 5 molecules from patent EP0003794B1, “Testosterone esters, process for their preparation and pharmaceutical compositions containing them” (priority 1978, dated 1979).

Data set [1] in a line: Testosterone plasma concentration (radioimmunoassay) and bioavailability after oral application in peanut oil, female dogs; i.m. testosterone as the reference. It is filed as in vivo, Hunden. The protocol:
Es wurde der zeitliche Verlauf der Testosteronkonzentration im Plasma von weiblichen Hunden von ca. 10 kg Gewicht nach oraler Applikation von 50 mg Testosteron-0-hexadecanoylglykolat (= 25 mg Testosteron) und von 40 mg Testosteronundecylat (= 25 mg Testosteron) im Vergleich zur […] Applikation von 25 mg Testosteron gemessen. Die Testosteronbestimmung im Plasma erfolgte mittels Radioimmunoassay. Zur Applikation wurden die geprüften Substanzen in Erdnußöl gelöst.
Die Bioverfügbarkeit wurde berechnet als Quotient der Flächen unter der Testosteronplasmaspiegelkurve (0-8 Stunden) nach oraler Applikation der geprüften Substanzen und der Fläche unter der Testosteronplasinaspiegelkurve nach intramuskulärer Applikation von Testosteron.

Data set [2] is classed as in vivo, Paviane. Particulars: 50 mg i.m. in 1 ml Rizinusöl/Benzylbenzoat (6:4), female baboons. How it is done: Die gleichmäßige, anhaltende Bereitstellung von Testosteron aus den erfindungsgemäßen Estern kann durch Bestimmung der Testosteronkonzentration im Plasma mittels Radioimmunoassay nachgewiesen werden.
Zu diesem Zweck erhielten zwei weibliche Paviane je 50 mg Testosteron-O-hexadecanoylglykolat in 1 ml Rizinusöl/Benzylbenzoat (6:4) intramuskular. Die Testosteron-Plasmaspiegel lagen zwischen dem 2. und 40. Tag im Bereich zwischen 15 und 25 ng/ml Plasma.

The conditions of data set [3]: Recent Progress in Hormone Research, Volume XIII, 389-396, Fig. 1 and Fig. 4; cited from earlier work.

Take `C[C@]12CC[C@H]3[C@@H](CCC4=CC(=O)CC[C@@]43C)[C@@H]1CC[C@@H]2O` [Testosteron (T), Testosteron]: the AUC at 8 h in data set [1] (dog, plasma, oral, in Erdnußöl, dose ≙ 25 mg Testosteron, female dogs ca. 10 kg, testosterone by radioimmunoassay, read-out: Fläche unter Plasma-spiegel (0 – 8 h)) came to 10.6 ng·h/mL. Moreover, the “Bioverfügbarkeit bezogen auf i.m. Applikation” value in data set [1] (in vivo) is given as 1,29%. With `CCCCCCCCCCCCCCCC(=O)OCC(=O)O[C@H]1CC[C@H]2[C@@H]3CCC4=CC(=O)CC[C@]4(C)[C@H]3CC[C@]12C` [Testosteron-O-hexadecanoylglykolat], the “Freisetzung des Testosterons aus dem Depot” value in data set [2] was “fast vollständig freigesetzt”. For the molecule `CCCCCCCCCC(=O)CC(=O)O[C@H]1CC[C@H]2[C@@H]3CCC4=CC(=O)CC[C@]4(C)[C@H]3CC[C@]12C` [Testosteroncaprinoylacetat], in data set [3], the “Wirkung (Verlauf) im Vergleich zu Testosteronönanthat” value (shortened to “Wirkung”) is given as “über 6 Wochen etwas gleichmäßigere aber insgesamt geringere Wirkung”. On to `CCCCCCCCCCC(=O)O[C@H]1CC[C@H]2[C@@H]3CCC4=CC(=O)CC[C@]4(C)[C@H]3CC[C@]12C` [Testosteronundecylat], for which the “Wirkung” value in data set [3] was “etwas gleichmäßigere Wirkung als Testosteronönanthat”. `CCCCCCC(=O)O[C@H]1CC[C@H]2[C@@H]3CCC4=CC(=O)CC[C@]4(C)[C@H]3CC[C@]12C` [Testosteronönanthat]: the “Wirkung” value in data set [3] is “besonders hohe initiale Wirkung zeigt, die relativ rasch abfällt”.
